Counter-ions that a name gives are not always drawn.
Tests used:
[1] = Dynamic Vapour Sorption (DVS) hygroscopicity; type: physicochemical; settings: for DVS mass uptake at 90% RH: 25° C., uptake from input material; for Hygroscopicity: DVS
Description: Dynamic Vapour Sorption (DVS). Approximately, 10 mg of sample was placed into a mesh vapour sorption balance pan and loaded into a DVS-1 or DVS Advantage dynamic vapour sorption balance by Surface Measurement Systems. The sample was subjected to a ramping profile from 40-90% relative humidity (RH) at 10% increments, maintaining the sample at each step until a stable weight had been achieved (dm/dt 0.004%, minimum step length 30 minutes, maximum step length 500 minutes) at 25° C. After completion of the sorption cycle, the sample was dried using the same procedure to 0% RH and then a second sorption cycle back to 40% RH. Two cycles were performed. The weight change during the sorption/desorption cycles were plotted, allowing for the hygroscopic nature of the sample to be determined. XRPD analysis was then carried out on any solid retained.

[2] = Pattern stability screen of potential salts (40° C./75% RH, XRPD); type: physicochemical
Description: XRPD analysis was carried out on a PANalytical X'pert pro, scanning the samples between 3 and 35° 20. The material was gently compressed and loaded onto a multi-well plate with Kapton or Mylar polymer film to support the sample.
Primary Salt Screening. […] The solvent systems shown in Table were selected for salt screening. For sulfonic acids MEK was used instead of methanol and acetone:water 50:50 (v/v) was used instead of IPA:water to avoid any potential genotoxic impurities. Ca. […] If the acid was insoluble in the selected solvent, a slurry was used. If the acid was a liquid it was added to the API slurry from a stock solution in the allocated solvent. The mixtures of API/counterion/solvent were temperature cycled between ambient and 40° C. in 4 hour cycles for ca. 3 days. Any solids present were isolated and allowed to dry at ambient conditions, for ca. 30 minutes prior to analysis by XRPD. Where solutions were obtained they were evaporated to obtain solid material.

[3] = 7 day stability testing of salts (40° C./75% RH, 80° C., ambient light; HPLC purity, XRPD); type: physicochemical; settings: listed as HCl salt
Description: High Performance Liquid Chromatography-Ultraviolet Detection (HPLC-UV): Instrument: Dionex Ultimate 3000; Column: Acquity CSH C18 100 mm×2.1 mm 1.7 μm; Column Temperature: 50° C.; Autosampler Temperature: Ambient; UV wavelength: 210 nm; Injection Volume: 4 μL; Flow Rate: 0.6 mL/min; Mobile Phase A: 0.1% formic acid in water; Mobile Phase B: 0.1% formic acid in acetonitrile. The HPLC method used the gradient in Table 2.
FT-IR appeared to be consistent with the structure. […] The material was physically stable to changes in temperature and humidity when stored for one week.
A new, poorly crystalline pattern was produced when stored at 40° C./75% RH—Pattern 4.
Purity of these materials remained unchanged (as shown in Table) apart from the sample stored at ambient light, where a 0.5% drop in purity was observed.

[4] = Disproportionation/hydration studies (pH, XRPD pattern); type: physicochemical; settings: for pH Pre-Agitation: listed as HCl salt
Excerpt: No XRPD data could be compiled on the hydration or disproportionation of the salt due to the high solubility in water and acetone/water mixtures.
The salt only remained Pattern 1 at 0.3 aw. New patterns 6 and 7 are likely hydrated due to the high water activity conditions for production.

[5] = Aqueous solubility assessment of salts; type: physicochemical
Water pH titration = type: physicochemical; settings: 2 mg/mL Nintedanib slurry HCl sample
[6] = Citrate buffer formulation; type: physicochemical
[7] = 0.5 mg/mL solubility assessment (filtered/unfiltered); type: physicochemical; settings: 0.5 mg/mL experiment; for pH: listed as HCl
[8] = Solid state and chemical stability of nintedanib HBr and HCl salts through 6 months; type: physicochemical; settings: for Weight loss: TGA/DSC
Excerpt: Table 24 and Table 25 summarize the total impurities (by HPLC), polymorphic form (by X-ray powder diffraction) and, where applicable, weight loss (by TGA/DSC) for both the HCl and HBr salt forms. […] There were no changes in polymorphic form for both salt forms stored at 25 C/60% RH condition.

[9] = HBr and HCl salts-filter compatibility study; type: physicochemical; settings: for visual appearance after filtration: 3% PG solution, glass vials, ambient room condition; for Visual appearance: listed as Nintedanib HCl Salt
Description: HBr and HCl salts-filter compatibility study: this study was conducted to assess the compatibility of the HBr and the HCl salts with various membrane filters. […] The glass vials were stored at ambient room condition and visual appearance was periodically inspected.

[10] = Feasibility assessment of ready-to-use nintedanib HBr, HCl and esylate formulations; type: physicochemical; settings: NaCl at 10 mM; by itself
[11] = Inhaled pharmacokinetics of nintedanib salt forms (intratracheal); type: in vivo, C57BL/6 mice; settings: female, C57BL/6, mouse, lung, inhaled or intranasal, 1 mg/kg, 1 mg/kg (base equivalent) IT, mice; read-out: lung half-life
[12] = Water Activity 0.3 (acetone/water)
[13] = Water Activity 0.6 (acetone/water)
[14] = Water Activity 0.9 (acetone/water)
[15] = 0.5 mg/mL citrate buffer experiments, listed as HCl
[16] = 40° C./75% RH, 2 months, listed as Nintedanib HCl salt
[17] = 40° C./75% RH, 6 months, listed as Nintedanib HCl salt

COC(=O)c1ccc2c(c1)NC(=O)/C2=C(\Nc1ccc(N(C)C(=O)CN2CCN(C)CC2)cc1)c1ccccc1 [Nintedanib HCl]
DVS mass uptake at 90% RH ([1]; listed as HCl): further 2.2% uptake up
DVS mass uptake at 90% RH ([1]; listed as HCl salt): ca. 2.2%
Hygroscopicity ([1]; listed as HCl): Hygroscopic
Hygroscopicity ([1]; listed as HCl salt): hygroscopic
Post-DVS XRPD pattern ([1]; listed as HCl): Pattern unchanged
Post-DVS XRPD pattern ([1]; listed as HCl salt): remain unchanged
XRPD pattern after 72 hrs 40° C./75% RH ([2]; Initial pattern 1): 1
XRPD pattern after 72 hrs 40° C./75% RH ([2]; Initial pattern 2): 2
XRPD pattern after 72 hrs 40° C./75% RH ([2]; Initial pattern 3, listed as HCl): 1
XRPD pattern after 7 day stability testing ([3]; 40° C./75% RH, 80° C. and ambient light (all conditions)): remain pattern 1
Purity (%) ([3]; 40° C./75% RH, 7 day stability testing): 99.9%
Purity (%) ([3]; 80° C., 7 day stability testing): 99.9%
Purity (%) ([3]; Ambient, 7 day stability testing): 99.9%
Purity (%) ([3]; Input): 99.9%
pH Post-Agitation [4, 12]: 2.45
pH Pre-Agitation [4, 12]: 1.94
pH Post-Agitation [4, 13]: 2.33
pH Pre-Agitation [4, 13]: 2.32
pH Post-Agitation [4, 14]: 2.24
pH Pre-Agitation [4, 14]: 1.89
pH Post-Agitation ([4]; Water Activity 1.0 (water)): 2.33
pH Pre-Agitation ([4]; Water Activity 1.0 (water)): 2.05
pH at 6 h ([5]; salt in water, after agitation): 2.26
pH at 18 h ([5]; salt in water, after agitation): 2.08
Initial pH ([5]; salt in water, solubility assessment): 2.22
solubility ([5]; thermodynamic from solid, deionized water added to 20 mg of salt, read-out: solubility in water): ~11 mg/mL
pH upon cooling (Water pH titration): 4.76
concentration of the filtered sample (Water pH titration; by HPLC): 1700 µg/mL
Initial pH [6, 15]: 4.84
pH 1 h [6, 15]: 4.80
attempt to solubilize in citrate buffer ([6]; pH 4.75 citrate buffer, ~1.7 mg/mL (Nintedanib)): unsuccessful
concentration for filtered sample compared to unfiltered ([7]; listed as HCl salt): 99%
pH ([7]; Filtered): 5.36
pH ([7]; Unfiltered): 5.28
Total impurities ([8]; 25° C./60 % RH, 1 week, listed as Nintedanib HCl salt): 0.41%
Total impurities ([8]; 25° C./60 % RH, 2 months, listed as Nintedanib HCl salt): 0.36%
Total impurities ([8]; 25° C./60 % RH, 4 weeks, listed as Nintedanib HCl salt): 0.36%
Total impurities ([8]; 25° C./60 % RH, 6 months, listed as Nintedanib HCl salt): 0.46%
Total impurities ([8]; 25° C./60 % RH, Initial): 0.29%
Weight loss ([8]; 25° C./60 % RH, Initial, listed as Nintedanib HCl salt): 0.82%
Polymorphic form ([8]; 40° C./75% RH, 1 week): Pattern 1
Total impurities ([8]; 40° C./75% RH, 1 week, listed as Nintedanib HCl salt): 0.39%
Polymorphic form [8, 16]: Pattern 1
Total impurities [8, 16]: 0.37%
Total impurities ([8]; 40° C./75% RH, 4 weeks): 0.34%
Polymorphic form ([8]; 40° C./75% RH, 4 weeks, listed as Nintedanib HCl salt): Pattern 1
Polymorphic form [8, 17]: Pattern 1
Total impurities [8, 17]: 0.52%
Polymorphic form ([8]; 40° C./75% RH, Initial): Pattern 1
Total impurities ([8]; 40° C./75% RH, Initial): 0.29%
Weight loss ([8]; 40° C./75% RH, Initial, listed as Nintedanib HCl salt): 0.82%
visual appearance after filtration ([9]; 0.22 μm PES filter): light precipitation after 2 weeks
visual appearance after filtration ([9]; 0.22 μm PVDF filter): precipitated shortly after filtration
visual appearance after filtration ([9]; 0.22 μm nylon filter): no change in appearance through 1 month
Visual appearance ([9]; PTFE filter, 1 month): Precipitation
Visual appearance ([9]; PTFE filter, 1 week): Precipitation
Visual appearance ([9]; PTFE filter, 2 weeks): Precipitation
Visual appearance ([9]; PVFD filter, 1 month): Precipitation
Visual appearance ([9]; PVFD filter, 1 week): Precipitation
Visual appearance ([9]; PVFD filter, 2 weeks): Precipitation
Visual appearance ([9]; PVFD filter, Initial): Precipitation
compatibility with NaCl [10]: not compatible
half-life [11]: ~4 min
